{"source": "patent US20240148709A1", "about": "“METHODS OF TREATING EYE PAIN AND EYE DISORDERS” (Aisa Pharma, Inc., priority 2022, published 2024)", "system": "participants with SSc-RP", "test": "Scleroderma Health Assessment Questionnaire (SHAQ), Phase 2a study Part A", "type": "in vivo, human", "conditions": "cilnidipine 10 mg and/or tadalafil 5 mg arms", "procedure": "Part A—double-blind, placebo-controlled, parallel-group, dose selection, will assess the safety and efficacy of two doses of cilnidipine (10 mg and 20 mg), alone and in combination with tadalafil. A total of 36 participants will be randomized to one of six prespecified treatment arms. Refer to FIG. 1 for treatment arms in Part A of the study. Dosing last for 12 (±2) days in which participants will self-administer daily doses of assigned treatment in the morning. Each participant will take one capsule and one tablet to blind the active therapy being received.\nThe standard, validated, patient reported outcome measures tool for SSc patients, the SHAQ, will be collected at the time points specified in the study schedules (FIG. 2 and FIGS. 3A and 3B) to assess the participant's quality of life. The SHAQ includes a Raynaud's VAS that will also be reported separately.\nResults: Patients in the study were administered the Scleroderma Health Assessment Questionnaire (SHAQ) at the time of study entry and during clinic visits following the treatment period. The study is a two-part, parallel arm design, prospective, double-blind, randomized study conducted in Australia (Flinders Medical Center). 27 patients were randomized into the first phase of the study, following which a DSMB meeting was held, which reviewed data on the primary study endpoint and key Raynaud's secondary endpoints. Data on the SHAQ was not available for the DSMB to review. The mITT population, in which any data was available post treatment was 24 patients was the analysis population for this first part of the study. The second part (i.e., part B) of the study will randomize 36 patients in a double blind, randomized, prospective, placebo controlled, crossover study. In the first part (i.e., Part A) of the study for which data is presented, patients were randomized into 6 groups, cilnidipine at two doses (10 and 20 mg) alone and in combination with tadalafil 5 mg, tadalafil 5 mg alone, and placebo. […] The DSMB recommended that the study proceed into its double blind prospective cross overpowered second phase and compare cilnidipine 20 mg alone to placebo.", "data": [{"smiles": "COCCOC(=O)C1=C(C)NC(C)=C(C(=O)OC/C=C/c2ccccc2)C1c1cccc([N+](=O)[O-])c1", "note": "(stereo not shown) [Cilnidipine, cilnidipine]", "values": [{"measurement": "SHAQ Overall Change in Severity, Percent Change from Baseline, Max", "value": "−26.8", "unit": "%"}, {"measurement": "SHAQ Overall Change in Severity, Percent Change from Baseline, Mean (SD)", "value": "−56.96 (38.271) %"}, {"measurement": "SHAQ Overall Change in Severity, Percent Change from Baseline, Median", "value": "−44.12", "unit": "%"}, {"measurement": "SHAQ Overall Change in Severity, Percent Change from Baseline, Min", "value": "−100.0", "unit": "%"}, {"measurement": "SHAQ Overall Change in Severity, Percent Change from Baseline, Q1", "value": "−100.00", "unit": "%"}, {"measurement": "SHAQ Overall Change in Severity, Percent Change from Baseline, Q3", "value": "−26.76", "unit": "%"}, {"measurement": "SHAQ Standard disability index, Change from Baseline, Max", "value": "0.00, 0.00"}, {"measurement": "SHAQ Standard disability index, Change from Baseline, Mean (SD)", "value": "0.0 (0.0000)"}, {"measurement": "SHAQ Standard disability index, Change from Baseline, Median", "value": 0.000}, {"measurement": "SHAQ Standard disability index, Change from Baseline, Min", "value": "0.00, 0.00"}, {"measurement": "SHAQ Standard disability index, Change from Baseline, Q1", "value": "0.000, 0.000"}, {"measurement": "SHAQ Standard disability index, Change from Baseline, Q3", "value": "0.000, 0.000"}, {"measurement": "SHAQ Standard disability index, In Clinic Visit (Day 12), Max", "value": 1.50}, {"measurement": "SHAQ Standard disability index, In Clinic Visit (Day 12), Mean (SD)", "value": "0.656 (0.7731)"}, {"measurement": "SHAQ Standard disability index, In Clinic Visit (Day 12), Median", "value": 0.563}, {"measurement": "SHAQ Standard disability index, In Clinic Visit (Day 12), Min", "value": 0.00}, {"measurement": "SHAQ Standard disability index, In Clinic Visit (Day 12), Q1", "value": 0.000}, {"measurement": "SHAQ Standard disability index, In Clinic Visit (Day 12), Q3", "value": 1.313}, {"measurement": "SHAQ Standard disability index, Percent Change from Baseline, Max", "value": "0.0, 0.0%"}, {"measurement": "SHAQ Standard disability index, Percent Change from Baseline, Mean (SD)", "value": "0.0 (0.000) %"}, {"measurement": "SHAQ Standard disability index, Percent Change from Baseline, Median", "value": 0.00, "unit": "%"}, {"measurement": "SHAQ Standard disability index, Percent Change from Baseline, Min", "value": "0.0, 0.0%"}, {"measurement": "SHAQ Standard disability index, Percent Change from Baseline, Q1", "value": "0.00, 0.00%"}, {"measurement": "SHAQ Standard disability index, Percent Change from Baseline, Q3", "value": "0.00, 0.00%"}, {"measurement": "SHAQ Visual Analog Scale-Breathing Problems, Change from Baseline, Max", "value": 0.00}, {"measurement": "SHAQ Visual Analog Scale-Breathing Problems, Change from Baseline, Mean (SD)", "value": "−0.300 (0.6000)"}, {"measurement": "SHAQ Visual Analog Scale-Breathing Problems, Change from Baseline, Median", "value": 0.000}, {"measurement": "SHAQ Visual Analog Scale-Breathing Problems, Change from Baseline, Min", "value": "−1.20"}, {"measurement": "SHAQ Visual Analog Scale-Breathing Problems, Change from Baseline, Q1", "value": "−0.600"}, {"measurement": "SHAQ Visual Analog Scale-Breathing Problems, Change from Baseline, Q3", "value": 0.000}, {"measurement": "SHAQ Visual Analog Scale-Breathing Problems, In Clinic Visit (Day 12), Max", "value": 6.30}, {"measurement": "SHAQ Visual Analog Scale-Breathing Problems, In Clinic Visit (Day 12), Mean (SD)", "value": "1.575 (3.1500)"}, {"measurement": "SHAQ Visual Analog Scale-Breathing Problems, In Clinic Visit (Day 12), Median", "value": 0.000}, {"measurement": "SHAQ Visual Analog Scale-Breathing Problems, In Clinic Visit (Day 12), Min", "value": 0.00}, {"measurement": "SHAQ Visual Analog Scale-Breathing Problems, In Clinic Visit (Day 12), Q1", "value": 0.000}, {"measurement": "SHAQ Visual Analog Scale-Breathing Problems, In Clinic Visit (Day 12), Q3", "value": 3.150}, {"measurement": "SHAQ Visual Analog Scale-Breathing Problems, Percent Change from Baseline, Max", "value": "−16.0, −16.0%"}, {"measurement": "SHAQ Visual Analog Scale-Breathing Problems, Percent Change from Baseline, Mean (SD)", "value": "−16.00", "unit": "%"}, {"measurement": "SHAQ Visual Analog Scale-Breathing Problems, Percent Change from Baseline, Median", "value": "−16.00", "unit": "%"}, {"measurement": "SHAQ Visual Analog Scale-Breathing Problems, Percent Change from Baseline, Min", "value": "−16.0, −16.0%"}, {"measurement": "SHAQ Visual Analog Scale-Breathing Problems, Percent Change from Baseline, Q1", "value": "−16.00, −16.00%"}, {"measurement": "SHAQ Visual Analog Scale-Breathing Problems, Percent Change from Baseline, Q3", "value": "−16.00, −16.00%"}, {"measurement": "SHAQ Visual Analog Scale-Intestinal Problems, Change from Baseline, Max", "value": 0.00}, {"measurement": "SHAQ Visual Analog Scale-Intestinal Problems, Change from Baseline, Mean (SD)", "value": "−1.875 (2.1838)"}, {"measurement": "SHAQ Visual Analog Scale-Intestinal Problems, Change from Baseline, Median", "value": "−1.550"}, {"measurement": "SHAQ Visual Analog Scale-Intestinal Problems, Change from Baseline, Min", "value": "−4.40"}, {"measurement": "SHAQ Visual Analog Scale-Intestinal Problems, Change from Baseline, Q1", "value": "−3.700"}, {"measurement": "SHAQ Visual Analog Scale-Intestinal Problems, Change from Baseline, Q3", "value": "−0.050"}, {"measurement": "SHAQ Visual Analog Scale-Intestinal Problems, In Clinic Visit (Day 12), Max", "value": 3.80}, {"measurement": "SHAQ Visual Analog Scale-Intestinal Problems, In Clinic Visit (Day 12), Mean (SD)", "value": "1.100 (1.8221)"}, {"measurement": "SHAQ Visual Analog Scale-Intestinal Problems, In Clinic Visit (Day 12), Median", "value": 0.300}, {"measurement": "SHAQ Visual Analog Scale-Intestinal Problems, In Clinic Visit (Day 12), Min", "value": 0.00}, {"measurement": "SHAQ Visual Analog Scale-Intestinal Problems, In Clinic Visit (Day 12), Q1", "value": 0.000}, {"measurement": "SHAQ Visual Analog Scale-Intestinal Problems, In Clinic Visit (Day 12), Q3", "value": 2.200}, {"measurement": "SHAQ Visual Analog Scale-Intestinal Problems, Percent Change from Baseline, Max", "value": "−44.1", "unit": "%"}, {"measurement": "SHAQ Visual Analog Scale-Intestinal Problems, Percent Change from Baseline, Mean (SD)", "value": "−77.37 (29.418) %"}, {"measurement": "SHAQ Visual Analog Scale-Intestinal Problems, Percent Change from Baseline, Median", "value": "−88.00", "unit": "%"}, {"measurement": "SHAQ Visual Analog Scale-Intestinal Problems, Percent Change from Baseline, Min", "value": "−100.0", "unit": "%"}, {"measurement": "SHAQ Visual Analog Scale-Intestinal Problems, Percent Change from Baseline, Q1", "value": "−100.00", "unit": "%"}, {"measurement": "SHAQ Visual Analog Scale-Intestinal Problems, Percent Change from Baseline, Q3", "value": "−44.12", "unit": "%"}, {"measurement": "SHAQ Visual Analog Scale-Pain, Change from Baseline, Max", "value": 0.30}, {"measurement": "SHAQ Visual Analog Scale-Pain, Change from Baseline, Mean (SD)", "value": "−0.100 (0.4243)"}, {"measurement": "SHAQ Visual Analog Scale-Pain, Change from Baseline, Median", "value": 0.000}, {"measurement": "SHAQ Visual Analog Scale-Pain, Change from Baseline, Min", "value": "−0.70"}, {"measurement": "SHAQ Visual Analog Scale-Pain, Change from Baseline, Q1", "value": "−0.350"}, {"measurement": "SHAQ Visual Analog Scale-Pain, Change from Baseline, Q3", "value": 0.150}, {"measurement": "SHAQ Visual Analog Scale-Pain, In Clinic Visit (Day 12), Max", "value": 3.60}, {"measurement": "SHAQ Visual Analog Scale-Pain, In Clinic Visit (Day 12), Mean (SD)", "value": "1.875 (1.6641)"}, {"measurement": "SHAQ Visual Analog Scale-Pain, In Clinic Visit (Day 12), Median", "value": 1.950}, {"measurement": "SHAQ Visual Analog Scale-Pain, In Clinic Visit (Day 12), Min", "value": 0.00}, {"measurement": "SHAQ Visual Analog Scale-Pain, In Clinic Visit (Day 12), Q1", "value": 0.500}, {"measurement": "SHAQ Visual Analog Scale-Pain, In Clinic Visit (Day 12), Q3", "value": 3.250}, {"measurement": "SHAQ Visual Analog Scale-Pain, Percent Change from Baseline, Max", "value": 11.5, "unit": "%"}, {"measurement": "SHAQ Visual Analog Scale-Pain, Percent Change from Baseline, Mean (SD)", "value": "−9.88 (27.711) %"}, {"measurement": "SHAQ Visual Analog Scale-Pain, Percent Change from Baseline, Median", "value": 0.00, "unit": "%"}, {"measurement": "SHAQ Visual Analog Scale-Pain, Percent Change from Baseline, Min", "value": "−41.2", "unit": "%"}, {"measurement": "SHAQ Visual Analog Scale-Pain, Percent Change from Baseline, Q1", "value": "−41.18", "unit": "%"}, {"measurement": "SHAQ Visual Analog Scale-Pain, Percent Change from Baseline, Q3", "value": 11.54, "unit": "%"}, {"measurement": "SHAQ Visual Analog Scale-Raynaud's, Change from Baseline, Max", "value": 1.50}, {"measurement": "SHAQ Visual Analog Scale-Raynaud's, Change from Baseline, Mean (SD)", "value": "0.325 (1.0468)"}, {"measurement": "SHAQ Visual Analog Scale-Raynaud's, Change from Baseline, Median", "value": 0.350}, {"measurement": "SHAQ Visual Analog Scale-Raynaud's, Change from Baseline, Min", "value": "−0.90"}, {"measurement": "SHAQ Visual Analog Scale-Raynaud's, Change from Baseline, Q1", "value": "−0.500"}, {"measurement": "SHAQ Visual Analog Scale-Raynaud's, Change from Baseline, Q3", "value": 1.150}, {"measurement": "SHAQ Visual Analog Scale-Raynaud's, In Clinic Visit (Day 12), Max", "value": 4.30}]}]}
